Data reported in ChEMBL document CHEMBL1201862, “PubChem BioAssay data set” (2004).
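96-well plates; 48 h exposure; 5 concentrations. Endpoints by linear interpolation between flanking doses. Not reached: highest tested concentration assigned. GI50 = concentration required for 50% inhibition of growth.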 Active and inactive are the calls of the source. No stated cut-off is given here; in the data, active = GI50 up to about 1.1 µM and inactive = higher.

Columns and labels:
Experiment in all cases: growth of human tumour cells (NCI), 48 h
[1] = tested on: A549
[2] = tested on: BT-549
[3] = tested on: CCRF-CEM
[4] = tested on: EKVX
[5] = tested on: HOP-62
[6] = tested on: Hs-578T
[7] = tested on: LOX IMVI
[8] = tested on: M14
[9] = tested on: MDA-MB-231
[10] = tested on: MDA-MB-435
[11] = tested on: NCI/ADR-RES
[12] = tested on: OVCAR-4
[13] = tested on: SF-268
[14] = tested on: SF-295
[15] = tested on: SN12C
[16] = tested on: SR
[17] = tested on: TK-10
[18] = tested on: UO-31
[19] = tested on: MCF7
[20] = tested on: SNB-75

Measured: GI50

C=C(C)CNCCN
inactive: [1] > 100 µM | [2] > 100 µM | [3] > 100 µM | [4] > 100 µM | [5] > 100 µM | [6] > 100 µM | [7] > 100 µM | [8] > 100 µM | [9] > 100 µM | [10] > 100 µM | [11] > 100 µM | [12] > 100 µM | [13] > 100 µM | [14] > 100 µM | [15] > 100 µM | [16] > 100 µM | [17] > 100 µM | [18] > 100 µM

CCOC(=O)C1=C(C)N(c2ccc(Cl)cc2)C2(O)C=CC(O)=C3C(=O)c4ccccc4C(=O)C312 (centres undefined)
inactive: [1] 4.56 µM | [2] 10.6 µM | [3] 2.34 µM | [4] 4.36 µM | [5] 5.2 µM | [6] 4.26 µM | [7] 3.72 µM | [8] 2.63 µM | [19] 2.72 µM | [9] 10.9 µM | [10] 2.59 µM | [11] 2.49 µM | [12] 3.97 µM | [13] 1.67 µM | [14] 6.93 µM | [15] 4.16 µM | [17] 1.71 µM | [18] 3.92 µM

CCc1nn(S(=O)(=O)c2ccc(C)cc2)c2c1CS(=O)(=O)CC2
inactive: [1] > 100 µM | [2] > 100 µM | [4] 89.7 µM | [5] 84.1 µM | [6] 28 µM | [8] > 100 µM | [19] > 100 µM | [9] > 100 µM | [10] > 100 µM | [11] 38.1 µM | [12] > 100 µM | [13] 37.1 µM | [14] 66.8 µM | [15] > 100 µM | [20] > 100 µM | [17] > 100 µM | [18] > 100 µM

CC(C)(C)/C(O)=C\c1nc2cc(C(F)(F)F)ccc2[nH]c1=O
inactive: [1] > 100 µM | [2] > 100 µM | [3] 13.3 µM | [4] > 100 µM | [5] > 100 µM | [6] > 100 µM | [7] > 100 µM | [8] > 100 µM | [9] > 100 µM | [10] > 100 µM | [11] > 100 µM | [12] > 100 µM | [13] > 100 µM | [14] > 100 µM | [15] > 100 µM | [20] > 100 µM | [16] > 10 µM | [17] > 100 µM | [18] > 100 µM

CSC(SC)=C(C#N)C(=O)Nc1ccc(C)cc1
inactive: [1] > 100 µM | [2] > 100 µM | [3] 34.6 µM | [4] > 100 µM | [5] > 100 µM | [6] > 100 µM | [7] > 100 µM | [8] > 100 µM | [19] 71.9 µM | [9] > 100 µM | [10] > 100 µM | [12] > 100 µM | [13] > 100 µM | [14] > 100 µM | [15] > 100 µM | [16] 63 µM | [17] > 100 µM | [18] 61 µM

S=C1SCN(Cc2ccco2)CN1c1ccc(Br)cc1
inactive: [1] 18.5 µM | [2] 16.7 µM | [3] 16.4 µM | [4] 18.7 µM | [5] 23.8 µM | [6] 24.8 µM | [7] 1.72 µM | [8] 13.8 µM | [19] 14.6 µM | [10] 14.6 µM | [11] 18.3 µM | [12] 13.9 µM | [13] 13.2 µM | [14] 6.98 µM | [15] 23.4 µM | [20] 37.8 µM | [16] 7.6 µM | [17] 22.8 µM | [18] 22.9 µM

COc1c(C(CC(C)C)OC(C)=O)ccc2c1C(=O)OCc1cc(C)cc(O)c1O2 (centres undefined)
inactive: [1] 12.4 µM | [2] 16.2 µM | [3] > 100 µM | [4] 11.8 µM | [5] 18.7 µM | [6] 22.1 µM | [7] 12.6 µM | [8] 16.7 µM | [19] 11.8 µM | [10] 13.7 µM | [11] 12.5 µM | [12] 13.9 µM | [13] 14.3 µM | [14] 14.4 µM | [15] 14.2 µM | [20] 19.2 µM | [16] > 100 µM | [17] 17.7 µM | [18] 6.95 µM

Cc1ccc(S(=O)(=O)NC(=O)NC(CCCCN)C(=O)O)cc1 (centres undefined)
inactive: [1] > 100 µM | [2] > 100 µM | [3] > 100 µM | [5] > 100 µM | [6] > 100 µM | [7] > 100 µM | [8] > 100 µM | [19] > 100 µM | [9] > 100 µM | [11] > 100 µM | [12] > 100 µM | [13] > 100 µM | [14] > 100 µM | [15] > 100 µM | [20] > 100 µM | [16] > 100 µM | [17] > 100 µM | [18] > 100 µM

COc1cc(NS(C)(=O)=O)ccc1N1Cc2c[nH]c3ccc4nccc1c4c23
inactive: [1] > 100 µM | [2] 42.9 µM | [3] 25.5 µM | [4] > 100 µM | [5] 54.2 µM | [6] 31.1 µM | [7] 18.2 µM | [8] 42.4 µM | [19] 36.6 µM | [9] 24.9 µM | [10] 34.4 µM | [11] > 100 µM | [12] 61.2 µM | [13] 19.1 µM | [14] 41.5 µM | [15] 20.2 µM | [17] 39.8 µM | [18] > 100 µM

COC(=O)C1CC(C=O)=C(SC)N1 (centres undefined)
inactive: [1] > 50 µM | [2] > 50 µM | [4] > 50 µM | [5] > 50 µM | [6] > 50 µM | [8] > 50 µM | [19] > 50 µM | [9] > 50 µM | [10] > 50 µM | [11] > 50 µM | [12] > 50 µM | [13] > 50 µM | [14] > 50 µM | [20] > 50 µM | [17] > 50 µM | [18] > 50 µM

CC1=C(Cl)C[C@@H](/C(C)=C\Cl)O[C@@]1(O)C(Br)Br
inactive: [1] 22 µM | [2] 28.4 µM | [3] 6.27 µM | [4] 26.5 µM | [5] > 100 µM | [6] 45.5 µM | [7] 31.7 µM | [8] 22.5 µM | [19] 18.2 µM | [9] 19.5 µM | [10] 31.6 µM | [12] 43 µM | [13] 32.7 µM | [14] > 100 µM | [15] 19.5 µM | [20] 55.6 µM | [16] 19.5 µM | [17] 29 µM | [18] 25.3 µM
